Assay results reported in patent publication US20110071220A1, “Use of Tetronic Acid Derivatives for Fighting Insects and Red Spider Mites by Watering on the Ground, Droplet Application or Immersion Application” (Bayer CropScience AG, priority 2008, published 2011).

What was measured:
Format in all cases: in vivo
[1] = tested on: greenhouse red spider mite (Tetranychus urticae); experiment: Tetranychus urticae test, soil application in rock wool (eggplants); details: 10 mg of ai/plant
Description: To produce a suitable solution, the product is mixed with water and diluted with water to the desired concentration. The desired amount of additive is added to the mixtures. Eggplants (Solanum melongena) are cultivated in rock wool. At the 4-leaf stage, the product solution in question is applied to the rock wool. The stated concentration refers to the amount of active compound per plant.
At the desired point in time, the plants are infested with a mixed population of the greenhouse red spider mite (Tetranychus urticae).
After the desired period of time, the effect in % is determined. 100% means that all spider mites have been killed; 0% means that none of the spider mites have been killed.

[2] = tested on: whiteflies (Bemisia tabaci); experiment: Bemisia tabaci test on cucumbers, drench application in rock wool; details: 20 mg of ai/plant, days between application and infestation −11, mortality determined 18 days after infestation
Description: (§1) To produce a suitable solution, the product is mixed with water and diluted with water to the desired concentration. The desired amount of additive is added to the mixtures.
Cucumbers (Cucumis sativa) are cultivated in rock wool and infested with whiteflies (Bemisia tabaci). At the 2-leaf stage, the product solution in question is applied to the rock wool. The stated concentration refers to the amount of active compound per plant.
(§2) After the desired period of time, the effect in % is determined. 100% means that all the whiteflies have been killed; 0% means that none of the whiteflies have been killed.

[3] = tested on: whiteflies (Bemisia tabaci); experiment: Bemisia tabaci test on tomatoes, drench application in rock wool; details: 5 mg of ai/plant; tomato plants in rock wool; days between application and infestation −11; mortality determined 25 days after infestation
Description: as §1
Tomato plants (Solanum lycopersicum) are cultivated in rock wool and infested with whiteflies (Bemisia tabaci). At the 2-leaf stage, the product solution in question is applied to the rock wool. The stated concentration refers to the amount of active compound per plant.
as §2

Question: What does the source list for `Cc1cc(C)c(C2=C(OC(=O)CC(C)(C)C)C3(CCCC3)OC2=O)c(C)c1` [spiromesifen (II-2), spiromesifen]?
Answer: Mortality ([1]; days between application and infestation 14, mortality determined 14 days after infestation): 20%; Mortality ([1]; days between application and infestation −1, mortality determined 7 days after infestation): 30%; Mortality ([1]; days between application and infestation −1, mortality determined 14 days after infestation): 10%; Mortality [2]: 0%; Mortality [3]: 80%
